Here are results for three compounds from patent publication US20210301318A1, “A BIOMARKER AND TARGET FOR DIAGNOSIS, PROGNOSIS AND TREATMENT OF ANKYLOSING SPONDYLITIS” (priority 2018, published 2021).

Entries after “also recorded” stand apart in the source; their conditions may differ.

The target in one experiment is T1, TNAP (Homo sapiens, UniProt P05186).
T1 sequence (P05186 18-501 limits assumed): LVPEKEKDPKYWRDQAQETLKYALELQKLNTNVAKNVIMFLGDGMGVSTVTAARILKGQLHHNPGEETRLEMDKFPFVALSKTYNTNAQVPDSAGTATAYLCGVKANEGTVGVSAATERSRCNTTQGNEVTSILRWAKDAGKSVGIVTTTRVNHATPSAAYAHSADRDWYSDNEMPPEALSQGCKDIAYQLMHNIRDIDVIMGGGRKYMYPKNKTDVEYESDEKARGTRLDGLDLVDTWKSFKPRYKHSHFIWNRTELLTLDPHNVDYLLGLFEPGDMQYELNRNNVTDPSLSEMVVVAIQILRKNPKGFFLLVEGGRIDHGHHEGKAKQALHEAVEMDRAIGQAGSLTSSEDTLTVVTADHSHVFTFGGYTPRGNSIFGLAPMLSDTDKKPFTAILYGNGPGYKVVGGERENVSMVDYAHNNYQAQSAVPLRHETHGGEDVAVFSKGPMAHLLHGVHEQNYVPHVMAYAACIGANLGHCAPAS
The following applies: from references 22-24; cited from earlier work.

A further experiment relates to AS MSCs. The experiment can be described thus: Mineralization of AS MSCs under osteogenic induction (Alizarin red S staining). The class given is cell-based, human. The following applies: 100 μM levamisole, 100 μM beryllium sulfate, or 1 μg/ml pamidronate.
In the next experiment the test system is AS patients. The conditions noted are these: cited from earlier work.
Experiment [1] relates to NOD-SCID mice implanted with AS MSCs. The experiment can be described thus: New bony apposition in NOD-SCID mice implanted with AS MSCs (micro-computed tomography of lumbar spine). The class given is in vivo. The following applies: daily oral administration: levamisole 10 mg/kg, beryllium sulfate 7.5 mg/kg, pamidronate 0.3 mg/kg; micro-CT 3 weeks after implantation. As for the experimental part: The animal experimental protocol was approved by the Animal Care and Utilization Committee of Taipei Tzu Chi General Hospital. NOD-SCID mice (8-10 weeks) were purchased from BioLASCO (Taipei, Taiwan) and maintained in a specific pathogen-free environment. Human MSCs were treated with β-glycerophosphate in culture for 5 days, embedded in fibrin (10^6 cells in 5 μl fibrin) (Baxter, Vienna, Austria) and implanted in areas adjacent to right lamina of lumbar spine segments L4 to L5 in NOD-SCID mice. The lamina of lumbar spine was decorticated using the forceps. Mice were fed with a 0.9% phosphate diet (Dyets, Bethlehem, Pa., USA) after surgery. Micro-computed tomography (SkyScan 1076; Kontich, Belgium) over lumbar spines was undertaken 3 weeks after implantation. Bone mineral density over the femur measured by micro-computed tomography in NOD-SCID mice following implantation with AS MSCs and daily oral administration of H2O levamisole (10 mg/kg), beryllium sulfate tetrahydrate (7.5 mg/kg), or pamidronate (0.3 mg/kg) for 12 weeks. Quantitative volumes of new bony apposition were acquired by Bruker CT-Volume version 2.0 software.

Take `O.O.O.O.O=S(=O)([O-])[O-].[Be+2]` [beryllium sulfate, BeSO4•4H2O]: the “type of TNAP inhibition” value on TNAP is on record as “competitive”. Moreover, the “accelerated mineralization in AS MSCs (ARS staining)” value (“accelerated mineralization” below) in the experiment on AS MSCs is given as “blocked effectively”.
Turning to `c1ccc([C@H]2CN3CCSC3=N2)cc1` [levamisole, (6S)-6-phenyl-2H,3H,5H,6H-imidazo[2,1-b][1,3]thiazole], in the experiment with AS patients (some studies, references 26-29), the “inflammation of AS patients” value is “marginally reduce inflammation”. Moreover, the “new bony apposition induced by AS MSCs” value in experiment [1] is “blocked”. For the same compound, at TNAP, the “type of TNAP inhibition” value is given as “uncompetitive”. The “accelerated mineralization” value in the experiment with AS MSCs is “blocked effectively; also recorded: inhibit this abnormal mineralization”.
For the compound `NCCC(O)(P(=O)(O)O)P(=O)(O)O` [pamidronate], the “serum BAP levels” value in the experiment on AS patients (one study, reference 34) is “lowering serum BAP levels”. Also, the “new bony apposition induced by AS MSCs” value in experiment [1] is “blocked”. Further, at TNAP, the “type of TNAP inhibition” value is on record as “uncompetitive”. In the experiment with AS MSCs, the “accelerated mineralization” value is given as “blocked effectively; also recorded: inhibit this abnormal mineralization”.
